Calls of active or inactive are those of the source. No cut-off for these calls is given here.
Columns and labels:
[1] = molecular target: Sigma non-opioid intracellular receptor 1 (Cavia porcellus, UniProt Q60492); assay: Displacement of [3H]-pentazocine from guinea pig brain sigma 1 receptor incubated for 120 mins by liquid scintillation counting method; assay type: tissue-based
[2] = molecular target: T1, Sigma intracellular receptor 2 (Rattus norvegicus, UniProt Q5U3Y7); assay: Displacement of [3H]-DTG from Sprague-Dawley rat liver sigma 2 receptor incubated for 120 mins by liquid scintillation counting method; assay type: tissue-based
T1 sequence (Q5U3Y7 whole entry): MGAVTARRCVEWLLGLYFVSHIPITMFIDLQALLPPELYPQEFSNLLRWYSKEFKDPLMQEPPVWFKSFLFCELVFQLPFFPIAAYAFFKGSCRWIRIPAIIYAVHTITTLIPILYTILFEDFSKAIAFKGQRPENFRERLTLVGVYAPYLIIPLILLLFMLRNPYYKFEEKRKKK

Mu-type opioid receptor [3] = molecular target: T2, Mu-type opioid receptor (Homo sapiens, UniProt P35372); assay: Binding affinity to MOR (unknown origin)
T2 sequence (P35372 whole entry): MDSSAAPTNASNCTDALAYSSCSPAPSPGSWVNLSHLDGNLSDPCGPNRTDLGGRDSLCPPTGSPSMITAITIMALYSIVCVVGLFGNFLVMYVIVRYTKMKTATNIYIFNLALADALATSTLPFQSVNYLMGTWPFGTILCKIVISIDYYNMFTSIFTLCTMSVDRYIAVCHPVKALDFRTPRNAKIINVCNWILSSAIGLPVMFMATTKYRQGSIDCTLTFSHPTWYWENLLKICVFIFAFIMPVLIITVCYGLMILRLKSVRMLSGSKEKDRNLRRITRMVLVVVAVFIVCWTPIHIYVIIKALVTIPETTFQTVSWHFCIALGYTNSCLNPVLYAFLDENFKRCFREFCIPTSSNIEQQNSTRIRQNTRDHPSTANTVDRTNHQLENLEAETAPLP

[4] = molecular target: T3, Delta-type opioid receptor (Homo sapiens, UniProt P41143); assay: Binding affinity to DOR (unknown origin)
T3 sequence (P41143 whole entry): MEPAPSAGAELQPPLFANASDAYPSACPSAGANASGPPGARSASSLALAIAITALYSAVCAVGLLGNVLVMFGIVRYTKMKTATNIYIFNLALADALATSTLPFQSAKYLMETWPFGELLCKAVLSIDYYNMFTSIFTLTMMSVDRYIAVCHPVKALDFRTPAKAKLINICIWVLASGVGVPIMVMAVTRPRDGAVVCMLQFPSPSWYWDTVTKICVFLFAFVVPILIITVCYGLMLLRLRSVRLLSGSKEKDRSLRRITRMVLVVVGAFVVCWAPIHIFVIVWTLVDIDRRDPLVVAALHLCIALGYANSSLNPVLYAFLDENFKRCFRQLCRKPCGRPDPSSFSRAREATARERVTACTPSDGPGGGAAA

[5] = molecular target: T4, Kappa-type opioid receptor (Homo sapiens, UniProt P41145); assay: Binding affinity to KOR (unknown origin)
T4 sequence (P41145 whole entry): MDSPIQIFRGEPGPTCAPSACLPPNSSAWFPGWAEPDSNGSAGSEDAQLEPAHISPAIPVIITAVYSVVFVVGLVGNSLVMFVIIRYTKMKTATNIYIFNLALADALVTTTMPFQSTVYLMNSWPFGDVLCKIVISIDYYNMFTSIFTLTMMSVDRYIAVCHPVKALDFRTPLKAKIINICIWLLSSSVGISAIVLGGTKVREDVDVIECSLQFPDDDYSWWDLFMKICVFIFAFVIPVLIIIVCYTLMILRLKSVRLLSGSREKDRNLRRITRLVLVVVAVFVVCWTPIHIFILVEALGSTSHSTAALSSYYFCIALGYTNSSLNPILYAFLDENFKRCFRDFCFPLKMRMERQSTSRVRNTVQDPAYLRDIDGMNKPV

[6] = molecular target: T4, Kappa-type opioid receptor; assay: Binding affinity to KOR (unknown origin) at <= 1 uM; settings: dose microM <=1
Mu-type opioid receptor [7] = molecular target: T2, Mu-type opioid receptor; assay: Binding affinity to MOR (unknown origin) at <= 1 uM; settings: dose microM <=1
[8] = molecular target: T5, Sigma intracellular receptor 2 (Rattus norvegicus) (UniProt Q5U3Y7); assay: Displacement of [3H]-DTG from Sprague-Dawley rat liver sigma 2 receptor at 1 uM incubated for 120 mins by liquid scintillation counting method relative to control; assay type: tissue-based
T5 sequence (whole entry): T1 sequence (Q5U3Y7 whole entry)

[9] = molecular target: T3, Delta-type opioid receptor; assay: Binding affinity to DOR (unknown origin) at <= 1 uM; settings: dose microM <=1

Sequence of Sigma non-opioid intracellular receptor 1 (Q60492 whole entry): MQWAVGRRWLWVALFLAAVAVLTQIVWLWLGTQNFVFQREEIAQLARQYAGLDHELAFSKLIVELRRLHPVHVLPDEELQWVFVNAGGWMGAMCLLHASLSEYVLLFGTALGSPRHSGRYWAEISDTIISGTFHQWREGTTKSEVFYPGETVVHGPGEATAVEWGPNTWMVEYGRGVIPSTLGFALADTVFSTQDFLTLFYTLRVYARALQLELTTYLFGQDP

Row | Ki [1] [nM] | Ki [2] [nM] | Ki (Mu-type opioid receptor [3]) [nM] | Ki [4] [nM] | Ki [5] [nM] | Activity [6] | Activity (Mu-type opioid receptor [7]) | inhibition [8] [%] | Activity [9] | Structure (SMILES)
1 | 95 | 340 | – | – | – | – | – | – | – | c1ccc(CN[C@H]2CCC[C@]3(C2)OCCc2ccccc23)cc1 (relative stereo)
2 | 5.4 | 60 | 696 | 150 | 407 | – | – | – | – | c1ccc2c(c1)CCO[C@@]21CCC[C@H](NCC2CCCCC2)C1 (relative stereo)
3 | 15 | – | – | – | – | inactive | inactive | 34 | inactive | CN(CC1CCCCC1)[C@H]1CCC[C@]2(C1)OCCc1ccccc12 (relative stereo)
4 | 278 | – | – | – | – | – | – | 24 | – | CN(Cc1ccccc1)[C@H]1CCC[C@]2(C1)OCCc1ccccc12 (relative stereo)

— ChEMBL document CHEMBL4673196, “Synthesis and sigma receptor affinity of spiro[[2]benzopyran-1,1-cyclohexanes] with an exocyclic amino moiety in the 3-position” (RSC Med Chem, 2021)
